This note sets out measurements from patent US4753881A, “Purified enzyme and process therefor” (Eli Lilly and Company, priority 1986, dated 1988).

Assay [1] concerns the target T1, hydroxylase activity of the expandase-hydroxylase enzyme (Hapsidospora chrysogena, UniProt P11935).
T1 construct: prepared by sonicating fresh cell suspensions of Cephalosporium acremonium in buffer at pH 7-8; endogenous in cells; host or cells: Cephalosporium acremonium cells (crude cell extract, then chromatographic purification)
T1 sequence (P11935 1-332): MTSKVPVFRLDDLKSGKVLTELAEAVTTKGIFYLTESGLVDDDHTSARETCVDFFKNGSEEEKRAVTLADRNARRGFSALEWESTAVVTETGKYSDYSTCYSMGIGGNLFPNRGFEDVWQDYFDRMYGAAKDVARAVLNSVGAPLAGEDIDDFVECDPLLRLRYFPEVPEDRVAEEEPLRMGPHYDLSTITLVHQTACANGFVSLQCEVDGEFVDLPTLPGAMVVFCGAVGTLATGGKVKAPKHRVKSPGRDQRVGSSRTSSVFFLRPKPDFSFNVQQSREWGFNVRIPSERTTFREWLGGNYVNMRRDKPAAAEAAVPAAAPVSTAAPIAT
Kind of assay: Enzyme activity assay (HPLC): hydroxylase-catalyzed reaction, DAC from DAOC. The assay is classed as biochemical, Cephalosporium acremonium. The note with it: for Maximal reactivation/stimulation of hydroxylase activity, initial to final activity: DTT 1.0 mM, ascorbate 0.25 mM, ATP 0.05 mM, purified enzyme (step 3); for Effect on hydroxylase function of the purified enzyme: present in the incubation mixture. The text has this:
(§1) The activity of the enzyme, which is a reflection of its purity, is expressed herein in units (U) of activity. One unit of expandase activity is defined as the amount of the enzyme required to cause formation of 1 μmole of DAOC plus DAC per minute from penicillin N. One unit of hydroxylase activity is defined as the amount of enzyme required to cause formation of 1 μmole of DAC per minute from DAOC.
(§2) The purity of the enzyme and the extent of purification during the course of the process can be measured by determining the expandase and hydroxylase activities of the chromatographic fractions via high performance liquid chromatography (HPLC) and by analyzing protein bands of chromatographic fractions via SDS-PAGE. The expandase-catalyzed reaction is conducted for 15 minutes at 30° C. with 0.28 mM penicillin N, 0.60 mM α-ketoglutarate (αKG), 0.06 mM ferrous sulfate, […], 1.00 mM dithiothreitol, 0.05 mM ATP and 0.0003-0.003 units of the enzyme in 1 ml of 50 mM Tris-HCl, pH 7.5. The hydroxylase-catalyzedreaction is conducted at 36° C. in the same medium with deacetoxycephalosporin C at a concentration of 0.05 mM instead of penicillin N.
(§3) The enzymatic reactions were interrupted by the addition of 1 ml of ethyl alcohol. The precipitate is separated by centrifugation at 4,000×g for 5 minutes and the supernatant containing the enzyme reaction products assayed by HPLC as follows. The expandase activity is determined by monitoring formation of both DAOC and DAC from penicillin N because of the apparent bifunctionality of the enzyme. The hydroxylase activity is determined by monitoring the formation of DAC from DAOC.
(§4) Aliquots (20 to 100 μl ) of the supernatant solutions are assayed for DAOC and DAC by HPLC using external standards.
A preferred HPLC system comprises the components: Model 721 system controller, Model 730 data module, Model 510EF pumps, Model 710B Waters Intelligent Sample Processor and a Lambda-Max Model 481 LC spectrophotometer (Waters Assoc., Milford, Mass.). DAC and DAOC are preferably separated by a radially packed compressed μBondapak-NH4column (0.8×10 cm) (Waters Assoc.) with a mobile phase of 2% acetic acid-0-4% methyl alcohol-6-7% acetonitrile-87-92% water; pH 3.8, a flow rate of 1.5-2.0 ml/min. and detection at 260 nm (cephalosporin chromophore). The assays are reproducible with 2% deviations for duplicate analyses of both the expandase and the hydroxylase catalyzed reactions. […]

The target in assay [2] is T2, deacetoxycephalosporin C synthetase (expandase) (Hapsidospora chrysogena, UniProt P11935).
T2 construct: prepared by sonicating fresh cell suspensions of Cephalosporium acremonium in buffer at pH 7-8; endogenous in cells; host or cells: Cephalosporium acremonium cells (crude cell extract, then chromatographic purification)
T2 sequence (P11935 1-332): T1 sequence (P11935 1-332)
Kind of assay: Enzyme activity assay (HPLC): expandase-catalyzed reaction, DAOC plus DAC from penicillin N. The assay is classed as biochemical, Cephalosporium acremonium. The note with it: for Maximal reactivation/stimulation of expandase activity, initial to final activity: DTT 1.0 mM, ascorbate 0.25 mM, ATP 0.05 mM, purified enzyme (step 3); for Effect on expandase function of the purified enzyme: present in the incubation mixture.
From the text: as §1, §2, §3, §4
A preferred HPLC system comprises the components: Model 721 system controller, Model 730 data module, Model 510EF pumps, Model 710B Waters Intelligent Sample Processor and a Lambda-Max Model 481 LC spectrophotometer (Waters Assoc., Milford, Mass.). DAC and DAOC are preferably separated by a radially packed compressed μBondapak-NH4column (0.8×10 cm) (Waters Assoc.) with a mobile phase of 2% acetic acid-0-4% methyl alcohol-6-7% acetonitrile-87-92% water; pH 3.8, a flow rate of 1.5-2.0 ml/min. and detection at 260 nm (cephalosporin chromophore). The assays are reproducible with 2% deviations for duplicate analyses of both the expandase and the hydroxylase catalyzed reactions.
For expandase assays, quantitation for DAC (in addition to that of DAOC) is corrected for penicillin N due to their coelution.

Take `O[C@H](CS)[C@H](O)CS` (racemic) [DTT, dithiothreitol]: in assay [1], the “Reactivation of hydroxylase activity” value is “reversibly reactivated”; the “Maximal reactivation/stimulation of hydroxylase activity, initial to final activity” value was in the range of 0 to 0.23 U × 10^-3; the “Effect on hydroxylase function of the purified enzyme” value (“Effect on hydroxylase function” below) was “stimulated”. For the same compound, in assay [2], the “Reactivation of expandase activity” value is given as “reversibly reactivated”; the “Maximal reactivation/stimulation of expandase activity, initial to final activity” value is reported as 0 to 50 U × 10^-3; the “Effect on expandase function of the purified enzyme” value (“Effect on expandase function” below) is listed as “stimulated”.
As for `O=C(O)c1cc(SSc2ccc([N+](=O)[O-])c(C(=O)O)c2)ccc1[N+](=O)[O-]` [5,5'-dithiobis-2-nitrobenzoic acid], in assay [1], the “Effect on hydroxylase function” value is recorded as “inhibited”. Moreover, the “Effect on expandase function” value in assay [2] is listed as “inhibited”.
With `Nc1ncnc2c1ncn2[C@@H]1O[C@H](COP(=O)(O)OP(=O)(O)OP(=O)(O)O)[C@@H](O)[C@H]1O` [ATP], in assay [1], the “Maximal reactivation/stimulation of hydroxylase activity, initial to final activity” value fell in the range of 0.57 to 0.61 U × 10^-3 and the “Effect on hydroxylase function” value is listed as “stimulated”. In assay [2], the “Maximal reactivation/stimulation of expandase activity, initial to final activity” value was 38 to 52 U × 10^-3 and the “Effect on expandase function” value was “stimulated”.
In the case of `O=C1O[C@H]([C@@H](O)CO)C(O)=C1O` [Ascorbate], in assay [1], the “Reactivation of hydroxylase activity” value is recorded as “reversibly reactivated”; the “Maximal reactivation/stimulation of hydroxylase activity, initial to final activity” value was 0 to 0.81 U × 10^-3; the “Effect on hydroxylase function” value was “stimulated”. Also, in assay [2], the “Reactivation of expandase activity” value is listed as “reversibly reactivated”; the “Maximal reactivation/stimulation of expandase activity, initial to final activity” value is 0 to 90 U × 10^-3; the “Effect on expandase function” value is on record as “stimulated”.
For the compound `[Zn+2]` [zinc ion], the “Effect on hydroxylase function” value in assay [1] was “inhibited”. The “Effect on expandase function” value in assay [2] is recorded as “inhibited”.
